Laboratory results reported in paper PMC9686516, “Pharmacokinetic Characteristics of Nebulized Colistimethate Sodium Using Two Different Types of Nebulizers in Critically Ill Patients with Ventilator-Associated Respiratory Infections” (Antibiotics, 2022).
Like-named read-outs stand apart in the source and are kept apart here. Where a SMILES comes first, the peptide text is derived from it. Bridges are numbered along the chain shown (N, C = ends). [ ]: non-standard residue; d: D form. The star is where a group is joined. X1 = CC[C@H](C)CCCCC(=O)*; Dab = NCC[C@H](N)C(=O)O

What was measured:
[1] = Colistin pharmacokinetics in plasma after nebulized CMS in ventilated VARI patients; format: in vivo, human; details: for Volume of distribution/ fraction of dose absorbed / Clearance/fraction of dose absorbed / Cmax / AUC0–8 h: NCA; for Volume of distribution/ fraction of dose absorbed: dose/(λ × AUCinf); for Volume of distribution/ fraction of dose absorbed / Clearance/fraction of dose absorbed / Cmax / Cmin / AUC0–8 h / level at 0.5 h / level at 1 h / level at 2 h / level at 4 h / level at 6 h / level at 8 h / Tmax: median (IQR); for Clearance/fraction of dose absorbed: dose/AUCinf; for AUC0–8 h: no systemic CMS, HPLC-fluorescence; for level at 0.5 h / level at 1 h / level at 2 h / level at 4 h / level at 6 h / level at 8 h / Tmax: 2 mIU; for level at 0.5 h: 0.5 h post-nebulization; for level at 0.5 h / level at 1 h / level at 2 h / level at 4 h / level at 6 h / level at 8 h: read-out: Ccolistin, plasma; for level at 1 h: 1 h post-nebulization; for level at 2 h: 2 h post-nebulization; for level at 4 h: 4 h post-nebulization; for level at 6 h: 6 h post-nebulization; for level at 8 h: 8 h post-nebulization
Source text: The study population consisted of 24 critically ill adult patients, admitted to the intensive care unit of the First Department of Pulmonology of the National and Kapodistrian University of Athens between June 2014 and November 2017. All patients were intubated and mechanically ventilated, and received inhaled CMS as part of their treatment for VAP or VAT caused by Gram-negative pathogens. Subjects were studied around the first dose of nebulized treatment, which always preceded intravenous treatment, to avoid confounding by colistin (or CMS) reaching the ELF via the systemic circulation. We excluded patients that received a dose different to the institution’s standard of 2 million international units (mIU) (~160 mg) of CMS and patients who were planned to receive intravenous colistin within 8 h of nebulization initiation.
A dose of 2 mIU of CMS (Colistin®, Norma Hellas, Athens, Greece), corresponding to approximately 160 mg CMS or 68 mg colistin-base activity, was nebulized over a 10–30 min period via either VMN (Aeroneb Solo with Aeroneb Pro controller, Aerogen, Galway, Ireland) or generic JN. This was not a randomized trial, and the nebulizer selection was exclusively a matter of availability of VMN consumables in the ICU at the time. The intended dose was dissolved in 4 mL of normal saline 0.9%. The nebulizer was placed at the inspiratory limb of the ventilator circuit, at 15 cm from the Y-piece, and the heat and moisture exchanger was removed. During nebulization, the patients were sedated and ventilated using assist volume controlled mode, with tidal volume set at 8 mL/kg of ideal body weight, a constant squared-wave inspiratory flow, a positive end expiratory pressure (PEEP) of less than or equal to 10 cm H2O, an inspiratory to expiratory time ratio equal to 1, an inspiratory pause of 10%, and a respiratory rate set at 15/min [31].
[…] The specimens were immediately centrifuged (3500× g for 10 min) in a frigid centrifuge (at 4 °C) and supernatants were collected in Eppendorfs and were frozen at −80 °C until analysis.
Colistin concentrations in plasma (Ccolistin,plasma) and epithelial lining fluid (Ccolistin,ELF) were measured through high performance liquid chromatography (HPLC)-fluorescence analysis.
The samples were rapidly centrifuged, and plasma and BAL supernatant were separated and kept frozen (−80 °C) before analysis, as previously described. An HPLC-RF assay was used for colistin concentration measurements in plasma and BAL fluid samples, based on the method of Li et al., as modified by Markou et al. and Ratjen et al.. Briefly, netilmicin was used as the internal standard and the method consisted of a protein precipitation step with trifluoracetic acid (TFA), followed by colistin derivatization with 9-fluorenylmethyl chloroformate on a solid phase extraction C18 cartridge. The eluted fluid was dried under vacuum and the solid residue was reconstituted in mobile phase for subsequent reversed-phase HPLC with fluorescence detection (excitation: 260 nm; emission: 316 nm). The analytical column was a Phenomenex Luna C18, 3 μm, 50 mm × 3 mm with 100 Å particle size, while the mobile phase consisted of ACN/THF/H2O (80/7.7/12.3%) with a flow rate of 0.5 mL/min. The injection volume was 20 μL. The method was linear at a concentration range of 0.10–4.8 mg/L (R^2 = 0.999). The limit of detection (LOD) and lower limit of quantification (LLOQ) were 0.01 and 0.04 mg/L, respectively, while the intra- and inter-assay variabilities were less than 16%. Representative chromatograms and calibration curves in plasma and BAL are given in the Supplementary Material (Figures S1 and S2).
PK analysis was performed on measured serum and ELF concentrations using the Phoenix® version 8.3 PK/PD software package (Certara, Princeton, NJ, USA). […]

[2] = piglets, cited from earlier work
Description: Nevertheless, in a piglet model of ventilated P. aeruginosa inoculation pneumonia, Lu et al. observed a serum maximum colistin concentration of 1.6 ± 1.4 mg/L after VMN aerosolization of 0.1 mIU/kg of CMS [28]. […] Post-nebulization colistin tissue levels have never been measured in humans; if the results abov ...

[3] = 1 mIU of CMS via VMN; similar ICU setting; median (IQR); cited from earlier work
Description: In this single-center study, we compared the pharmacokinetic properties of formed colistin in the ELF and the plasma compartment when inhaled CMS, at a typical dose, was administered either via a VMN or a generic JN. […] Indeed, the median total (as opposed to unbound) AUC0–24 in the ELF for the two modalities were 86.2 and 91.5 mg/L*h for VMN and JN, respectively. […] However, the ELF exposure was similar, despite the higher dose, probably due to a higher clearance from the lung compartment in our study, as evidenced by the ... || Contrarily, our results were only marginally compatible with the results of Boisson et al. and Gkoufa et al.. In the former study, the range of colistin concentration in the ELF following a 2 mIU inhalation spanned from 9.53 to 1137 mg/L [14], while it was between 0.8 mg/L and 57.9 mg/L in the present study. In the latter study, the exact values were not reported, however in the figured data it was shown that after an inhalation of 3 to 5 mIU of CMS, formed colistin concentrations were in the range of 10^2 to 10^3 mg/L [16]. Again, it is not known whether these differences we ...

[4] = human, inhaled or intranasal, JN, n = 6, 2 mIU CMS inhaled
[5] = human, inhaled or intranasal, VMN, n = 18, 2 mIU CMS inhaled

## CC[C@H](C)CCCCC(=O)N[C@@H](CCN)C(=O)N[C@H](C(=O)N[C@@H](CCN)C(=O)N[C@H]1CCNC(=O)[C@H]([C@@H](C)O)NC(=O)[C@H](CCN)NC(=O)[C@H](CCN)NC(=O)[C@H](CC(C)C)NC(=O)[C@@H](CC(C)C)NC(=O)[C@H](CCN)NC1=O)[C@@H](C)O [colistin] (X1-[Dab]T[Dab][Dab][Dab][dL]L[Dab][Dab]T; lactam 4-C)
[1]; 30 min, JN, n = 6, 2 mIU CMS inhaled
  Ccolistin over 2 mg/L, frequency of patients: 0%
[1]; 30 min, VMN, n = 18, 2 mIU CMS inhaled
  Ccolistin over 2 mg/L, frequency of patients: 0%
[1]; 60 min, JN, n = 6, 2 mIU CMS inhaled
  Ccolistin over 2 mg/L, frequency of patients: 16.7%
[1]; 60 min, VMN, n = 18, 2 mIU CMS inhaled
  Ccolistin over 2 mg/L, frequency of patients: 61.1%
[1]; 120 min, JN, n = 6, 2 mIU CMS inhaled
  Ccolistin over 2 mg/L, frequency of patients: 16.7%
[1]; 120 min, VMN, n = 18, 2 mIU CMS inhaled
  Ccolistin over 2 mg/L, frequency of patients: 22.2%
[1]; 240 min, JN, n = 6, 2 mIU CMS inhaled
  Ccolistin over 2 mg/L, frequency of patients: 16.7%
[1]; 240 min, VMN, n = 18, 2 mIU CMS inhaled
  Ccolistin over 2 mg/L, frequency of patients: 5.6%
[1]; 360 min, JN, n = 6, 2 mIU CMS inhaled
  Ccolistin over 2 mg/L, frequency of patients: 0%
[1]; 360 min, VMN, n = 18, 2 mIU CMS inhaled
  Ccolistin over 2 mg/L, frequency of patients: 0%
[1]; 480 min, JN, n = 6, 2 mIU CMS inhaled
  Ccolistin over 2 mg/L, frequency of patients: 0%
[1]; 480 min, VMN, n = 18, 2 mIU CMS inhaled
  Ccolistin over 2 mg/L, frequency of patients: 0%
[1]; JN, n = 6, 2 mIU CMS inhaled
  Volume of distribution/ fraction of dose absorbed: 129.8 (95.6–151.9) L
  Clearance/fraction of dose absorbed: 37.6 (23.2–39.9) L/h
  Cmax: 0.3 (0.3–1.6) mg/L
  Cmin: 0.1 (0.1–0.2) mg/L
  AUC0–8 h: 1.3 (1.3–6.4) mg/L∙h
[1]; JN, n = 6, 2 mIU CMS inhaled, calculated as AUCinf × 3, median (IQR)
  AUC0–24: 4.0 (3.8–19.3) mg/L∙h
[1]; JN, n = 6, 2 mIU CMS inhaled, t1/2 = 0.693/λ, mean (SD), SD
  Mean T1/2 (SD): 2.4 (0.5) h
[1]; VMN, n = 18, 2 mIU CMS inhaled
  Volume of distribution/ fraction of dose absorbed: 22.8 (16.8–33.0) L
  Clearance/fraction of dose absorbed: 7.3 (6.0–9.1) L/h
  Cmax: 2.6 (2.0–3.5) mg/L
  Cmin: 0.2 (0.1–0.3) mg/L
  AUC0–8 h: 7.5 (5.5–8.8) mg/L∙h
[1]; [4]
  level at 0.5 h: 100 ng/mL
  level at 1 h: 100 ng/mL
  level at 2 h: 300 ng/mL
  level at 4 h: 200 ng/mL
  level at 6 h: 100 ng/mL
  level at 8 h: 100 ng/mL
  Tmax: 2.2 h
[1]; [5]
  level at 0.5 h: 600 ng/mL
  level at 1 h: 2300 ng/mL
  level at 2 h: 1700 ng/mL
  level at 4 h: 800 ng/mL
  level at 6 h: 400 ng/mL
  level at 8 h: 200 ng/mL
  Tmax: 1.5 h
[1]; human, inhaled or intranasal, VMN, n = 18, 2 mIU CMS inhaled, t1/2 = 0.693/λ, mean (SD), SD
  half-life: 2.4 h
[2]; 1 h after the third inhaled dose, upon sacrifice
  median peak lung tissue concentration: 2.8 µg/g
[2]; VMN aerosolization of 0.1 mIU/kg of CMS, ref 28 (Lu et al.)
  serum maximum colistin concentration: 1.6 ± 1.4 mg/L
[3]
  Cmax in ELF: 6.7 (4.8–10.1) mg/L
